Test results taken from patent US8697694B2, “Substituted pyridine and pyrimidine derivatives and their use in treating viral infections” (priority 2008, dated 2014).

These compounds were tested on HCV replicon cells (assay: Cell-based HCV replicon assay (replicon RNA level by real time PCR, Taqman)). Conditions: Hepatitis C virus, 72 h, HCV replicon cells, harvested day 3, replicon RNA by real time PCR; given as number; read-out: EC90 (μM) range.
In short: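 Readout: ΔCT between NS5B replicon RNA and GAPDH by real-time RT-PCR in lysates harvested on day 3, fitted sigmoidally; EC50 at ΔCT=1, EC90 at ΔCT=3.2. Compounds tested at ten 2-fold dilutions from 25 μM to 1 μM start, 10% FBS, 0.5% DMSO.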

First: CCCOc1cc2cc(-c3c(C)nc(NCC4CC4)nc3N[C@@H]3C[C@H](CO)[C@@H](O)[C@H]3O)oc2c(C)n1 [Example 38]
Second: Cc1nc(NCC(F)(F)F)nc(N[C@H]2C[C@H](O)[C@@H]3C[C@@H]32)c1-c1nc2ccccc2s1 [Example 53]
The EC90 of the first is 8.4-fold lower: 0.25 µM for the first, 2.1 µM for the second.

Same assay, conditions: Hepatitis C virus, 72 h, HCV replicon cells, harvested day 3, replicon RNA by real time PCR; reported as range class; read-out: EC90 (μM) range

`CO[C@@H](C)CNc1nc(C)c(-c2nc3ccccc3s2)c(N[C@@H]2C[C@H](CO)[C@@H](O)[C@H]2O)n1` [Example 229] and `CN(C)c1nc(Cl)c(-c2nc3ccccc3s2)c(N[C@@H]2C[C@H](CO)[C@@H](O)[C@H]2O)n1` [Example 408] cannot be ordered by EC90: under 0.5 µM for the first, under 0.5 µM for the second.

`CN(C)c1ccc2sc(-c3c(Cl)nc(N)nc3N[C@@H]3C[C@H](CO)[C@@H](O)[C@H]3O)nc2c1` [Example 200] and `CNc1ccc2sc(-c3c(Cl)nc(N)nc3N[C@@H]3C[C@H](CO)[C@@H](O)[C@H]3O)nc2c1` [Example 194] cannot be ordered by EC90: under 0.5 µM for the first, under 0.5 µM for the second.

`COc1cc2cc(-c3c(Cl)nc(NCC(F)(F)F)nc3N[C@@H]3C[C@H](CO)[C@@H](O)[C@H]3O)oc2cn1` [Example 22] and `COc1cc2cc(-c3c(Cl)nc(N)nc3N[C@@H]3C[C@H](COC(=O)C(F)(F)F)[C@@H](O)[C@H]3O)oc2cn1` [Example 10] cannot be ordered by EC90: under 0.5 µM for the first, under 0.5 µM for the second.

`Nc1nc(Cl)c(-c2cc3cc(F)c(F)cc3o2)c(N[C@@H]2C[C@H](CO)[C@@H](O)[C@H]2O)n1` [Example 169] and `Nc1nc(Cl)c(-c2cc3cc(C(F)(F)F)ccc3o2)c(N[C@@H]2C[C@H](CO)[C@@H](O)[C@H]2O)n1` [Example 108] cannot be ordered by EC90: over 5 µM for the first, over 5 µM for the second.

`Nc1nc(Cl)c(-c2cc3cc(C(=O)N4CCOCC4)ccc3o2)c(N[C@@H]2C[C@H](CO)[C@@H](O)[C@H]2O)n1` [Example 175] and `Nc1nc(Cl)c(-c2cc3ccc(C(=O)N4CCOCC4)cc3o2)c(N[C@@H]2C[C@H](CO)[C@@H](O)[C@H]2O)n1` [Example 179] cannot be ordered by EC90: over 5 µM for the first, over 5 µM for the second.

Compared with `Nc1nc(Cl)c(-c2ccccn2)c(N[C@@H]2C[C@H](CO)[C@@H](O)[C@H]2O)n1` [Example 157], `Cc1ccc2nc(-c3c(Cl)nc(N)nc3N[C@@H]3C[C@H](CO)[C@@H](O)[C@H]3O)oc2c1` [Example 191] is lower in EC90: over 5 µM for the first, 0.5 to 5 µM for the second.

For `Nc1nc(Cl)c(-c2cc3cc([N+](=O)[O-])cnc3o2)c(N[C@@H]2C[C@H](CO)[C@@H](O)[C@H]2O)n1` [Example 302], the EC90 was 0.5 to 5 µM.

Same assay, conditions: Hepatitis C virus, 72 h, HCV replicon cells, harvested on day 3, replicon RNA by real time PCR; calculated EC90 reported as range class; read-out: EC90 (μM) range

`Cc1cc(C)cc(CNc2nc(C)c(-c3nc4ccccc4s3)c(N[C@@H]3C[C@H](CO)[C@@H](O)[C@H]3O)n2)c1` [Example 713] and `COc1cc(CNc2nc(C)c(-c3nc4ccccc4s3)c(N[C@@H]3C[C@H](CO)[C@@H](O)[C@H]3O)n2)cc(OC)c1` [Example 701] cannot be ordered by EC90: under 0.5 µM for the first, under 0.5 µM for the second.

`CCc1cc2cc(-c3c(C)nc(NCCC(F)(F)F)nc3N[C@@H]3C[C@H](CO)[C@@H](O)[C@H]3O)oc2cn1` [Example 521] and `CCOCCNc1nc(Cl)c(-c2cc3cc(CC)ncc3o2)c(N[C@@H]2C[C@H](CO)[C@@H](O)[C@H]2O)n1` [Example 512] cannot be ordered by EC90: under 0.5 µM for the first, under 0.5 µM for the second.

Compared with `Cc1nc(NCc2ccc(C(F)(F)F)cc2)nc(N[C@@H]2C[C@H](CO)[C@@H](O)[C@H]2O)c1-c1nc2ccccc2s1` [Example 242], `Cc1nc(NCc2cccc[n+]2[O-])nc(N[C@@H]2C[C@H](CO)[C@@H](O)[C@H]2O)c1-c1nc2ccccc2s1` [Example 482] is higher in EC90: under 0.5 µM for the first, 0.5 to 5 µM for the second.

`Cc1nc(NCc2cccs2)nc(N[C@@H]2C[C@H](C)[C@@H](O)[C@H]2O)c1-c1nc2ccccc2s1` [Example 337] and `Cc1csc(CNc2nc(C)c(-c3nc4ccccc4s3)c(N[C@@H]3C[C@H](CO)[C@H]4OC(C)(C)O[C@H]43)n2)c1` [Example 477] cannot be ordered by EC90: under 0.5 µM for the first, under 0.5 µM for the second.

`CNc1ccc2sc(-c3c(C)nc(NCC(F)(F)F)nc3N[C@@H]3C[C@H](CO)[C@@H](O)[C@H]3O)nc2c1` [Example 260] and `CCc1cc2cc(-c3c(Cl)nc(NCC(C)C)nc3N[C@@H]3C[C@H](CO)[C@@H](O)[C@H]3O)oc2cn1` [Example 518] cannot be ordered by EC90: under 0.5 µM for the first, under 0.5 µM for the second.

`CCc1cc2cc(-c3c(C)nc(NCc4ccco4)nc3N[C@@H]3C[C@H](CO)[C@H]4OC(C)(C)O[C@H]43)oc2cn1` [Example 704] showed an EC90 of under 0.5 µM.

Same assay, conditions: Hepatitis C virus, 72 h, HCV replicon cells, replicon RNA level by real time PCR (Taqman), day 3; calculated EC90; read-out: EC90 (μM) range

`Cc1nc(NCC(F)(F)F)nc(N[C@@H]2C[C@H](CO)[C@H]3OC(C)(C)O[C@H]32)c1-c1nc2ncccc2o1` [Example 2006] gave an EC90 of 0.5 to 5 µM.

Same assay, conditions: Hepatitis C virus, 72 h, HCV replicon cells, replicon RNA level by real time PCR (Taqman), harvested on day 3; calculated EC90 reported as range class; read-out: EC90 (μM) range

`CCOCCNc1nc(C)c(-c2nc3cc(OC(F)F)c(OC(F)F)cc3s2)c(N[C@@H]2C[C@H](CO)[C@@H](O)[C@H]2O)n1` [Example 1002] and `Cc1nc(NCC2CC2)nc(N[C@@H]2C[C@H](CO)[C@@H](O)[C@H]2O)c1-c1nc2cc(OC(F)F)c(OC(F)F)cc2s1` [Example 1006] fall in the same range of EC90: 0.5 to 5 µM for the first, 0.5 to 5 µM for the second.

First: Cc1nc(Nc2ccccc2F)nc(N[C@@H]2C[C@H](CO)[C@@H](O)[C@H]2O)c1-c1nc2ccccc2s1 [Example 1043]
Second: Cc1ccccc1Nc1nc(C)c(-c2nc3ccccc3s2)c(N[C@@H]2C[C@H](CO)[C@@H](O)[C@H]2O)n1 [Example 1047]
The EC90 of the first is higher: over 5 µM for the first, 0.5 to 5 µM for the second.

Going from `Cc1nc(N(C)c2ccccc2)nc(N[C@@H]2C[C@H](CO)[C@@H](O)[C@H]2O)c1-c1nc2cnccc2s1` [Example 1217] to `Cc1nc(NCc2cccc(N(C)C)c2)nc(N[C@@H]2C[C@H](CO)[C@@H](O)[C@H]2O)c1-c1nc2ccccc2s1` [Example 1106], the EC90 falls from over 5 µM to under 0.5 µM.

First: Cc1nc(NCC(C)(C)F)nc(N[C@@H]2C[C@H](CO)[C@@H](O)[C@H]2O)c1-c1nc2ccccc2s1 [Example 1243]
Second: Cc1nc(NCC(F)(F)F)nc(N[C@H]2C[C@@H](CO)[C@H](O)[C@@H]2O)c1-c1nc2ccccc2s1 [Example 1060]
The EC90 of the first is lower: 0.5 to 5 µM for the first, over 5 µM for the second.

First: Cc1nc(NCC2CC2)nc(O[C@@H]2C[C@H](CO)[C@@H](O)[C@H]2O)c1-c1nc2ccccc2s1 [Example 1132]
Second: Cc1nc(NCC2CC2)nc(N[C@@H]2C[C@H](CO)[C@@H](S(C)(=O)=O)[C@H]2O)c1-c1nc2ccccc2s1 [Example 1136]
The EC90 of the first is higher: over 5 µM for the first, 0.5 to 5 µM for the second.

First: Cc1nc(NCC2CC2)nc(N[C@@H]2C[C@H](CO)[C@H]3OC(C)(C)O[C@H]32)c1-c1nc2cc(OC(F)F)c(OC(F)F)cc2s1 [Example 1005]
Second: CNc1ccc2oc(-c3c(C)nc(NCC4CC4)nc3N[C@@H]3C[C@H](CO)[C@@H](O)[C@H]3O)nc2c1 [Example 1065]
The EC90 of the first is higher: over 5 µM for the first, 0.5 to 5 µM for the second.

`COCCCCNc1nc(C)c(-c2nc3ccccc3s2)c(N[C@@H]2C[C@H](CO)[C@@H](O)[C@H]2O)n1` [Example 1048] and `Cc1cc(CNc2nc(C)c(-c3nc4cnccc4s3)c(N[C@@H]3C[C@H](CO)[C@@H](O)[C@H]3O)n2)on1` [Example 538] cannot be ordered by EC90: under 0.5 µM for the first, under 0.5 µM for the second.

Same assay, conditions: Hepatitis C virus, 72 h, HCV replicon cells, replicon RNA level by real time PCR, harvested day 3; read-out: EC90 (μM) range

First: Cc1nc(NCc2cc3cn[nH]c3cc2F)nc(N[C@@H]2C[C@H](CO)[C@@H](O)[C@H]2O)c1-c1nc2ccccc2s1 [Example 1909]
Second: Cc1nc(CN)nc(N[C@@H]2C[C@H](CO)[C@@H](O)[C@H]2O)c1-c1nc2ccccc2s1 [Example 1916]
The EC90 of the first is lower: under 0.5 µM for the first, over 5 µM for the second.

`Cc1nc(NCC(F)(F)F)nc(N[C@@H]2C[C@H](CC#N)[C@@H](O)[C@H]2O)c1-c1nc2ccccc2s1` [Example 1635] and `Cc1nc(NCC(F)(F)F)nc(N[C@@H]2C[C@H](CS(C)(=O)=O)[C@@H](O)[C@H]2O)c1-c1nc2ccccc2s1` [Example 1357] cannot be ordered by EC90: under 0.5 µM for the first, under 0.5 µM for the second.

`Cc1nc(NCC(F)(F)F)nc(N[C@@H]2C[C@H](CS(C)(=O)=O)[C@@H](O)[C@H]2O)c1-c1nc2cnccc2s1` [Example 1367] and `Cc1nc(NCC(F)(F)F)nc(N[C@@H]2C[C@H](Cn3ccnn3)[C@@H](O)[C@H]2O)c1-c1nc2ccccc2s1` [Example 1538] cannot be ordered by EC90: under 0.5 µM for the first, under 0.5 µM for the second.

`Cc1nc(N[C@@H](c2ccc(OC(F)(F)F)cc2)C(F)(F)F)nc(N[C@@H]2C[C@H](CO)[C@@H](O)[C@H]2O)c1-c1nc2c(C)nccc2s1` [Example 1546] and `Cc1nc(N[C@@H](c2ccc(-n3cccn3)cc2)C(F)(F)F)nc(N[C@@H]2C[C@H](CO)[C@@H](O)[C@H]2O)c1-c1nc2c(C)nccc2s1` [Example 1541] cannot be ordered by EC90: under 0.5 µM for the first, under 0.5 µM for the second.

`CCCc1nccc2sc(-c3c(C)nc(N[C@H](C)c4ccc(C)cc4)nc3N[C@@H]3C[C@H](CO)[C@@H](O)[C@H]3O)nc12` [Example 1371] and `CCOc1cc2sc(-c3c(C)nc(N[C@H](C)c4ccc(C)cc4)nc3N[C@@H]3C[C@H](CO)[C@@H](O)[C@H]3O)nc2c(C)n1` [Example 1375] cannot be ordered by EC90: under 0.5 µM for the first, under 0.5 µM for the second.

`CCCc1nccc2sc(-c3c(C)nc(NC4CC4)nc3N[C@@H]3C[C@H](CO)[C@@H](O)[C@H]3O)nc12` [Example 1535] and `Cc1nc(N[C@H](C)C2CC2)nc(N[C@@H]2C[C@@H](C(C)O)[C@@H](O)[C@H]2O)c1-c1nc2cnccc2s1` (stereo partly shown) [Example 1651] cannot be ordered by EC90: under 0.5 µM for the first, under 0.5 µM for the second.

Compared with `Cc1nc(N[C@H](C)c2ccc(OC(F)(F)F)cc2)nc(N[C@@H]2CC[C@@H](O)[C@@]2(C)O)c1-c1nc2cnccc2s1` [Example 1542], `Cc1nc(NCc2ccc(F)cc2F)nc(N[C@@H]2CC[C@@H](O)[C@@]2(C)O)c1-c1nc2cnccc2s1` [Example 1821] is lower in EC90: 0.5 to 5 µM for the first, under 0.5 µM for the second.

`Cc1nc(NCC(O)c2ccccc2)nc(N[C@@H]2C[C@H](CO)[C@@H](O)[C@H]2O)c1-c1nc2cnccc2s1` (stereo partly shown) [Example 1918] and `Cc1nc(NCC(F)(F)F)nc(N[C@@H]2C[C@H](C(C)O)[C@@H](O)[C@H]2O)c1-c1nc2ccccc2s1` (single isomer, unassigned) [Example 1643] cannot be ordered by EC90: under 0.5 µM for the first, under 0.5 µM for the second.

In the case of `Cc1ccc([C@@H](C)Nc2cc(C)c(-c3nc4ccccc4s3)c(N[C@@H]3C[C@H](CO)[C@@H](O)[C@H]3O)n2)cc1` [Example 1619], the EC90 is reported as over 5 µM.
